Measurements published in ChEMBL document CHEMBL2346578, “Substituted 1,6-diphenylnaphthalenes as FtsZ-targeting antibacterial agents” (2013).
Values after ≈ are worked out from the molar mass of the structure shown. Active and inactive are the calls of the source. The calls are words filed in the database; no cut-off is given here.

How the values were obtained:
Staphylococcus aureus [1] = experiment: microbe, parasite or virus in culture; type: functional; details: ATCC 33591
Description: Antibacterial activity against methicillin-resistant Staphylococcus aureus ATCC 33591 assessed as growth inhibition by CLSI broth microdilution method

Enterococcus faecalis [2] = experiment: Antibacterial activity against vancomycin-resistant Enterococcus faecalis ATCC 51575 assessed as growth inhibition by CLSI broth microdilution method; type: functional
Enterococcus faecalis [3] = experiment: microbe, parasite or virus in culture; type: functional; details: ATCC 19433
Description: Antibacterial activity against vancomycin-sensitive Enterococcus faecalis ATCC 19433 assessed as growth inhibition by CLSI broth microdilution method

Staphylococcus aureus [4] = experiment: Antibacterial activity against methicillin-sensitive Staphylococcus aureus 8325-4 assessed as growth inhibition by CLSI broth microdilution method; type: functional
[5] = molecular target: Tubulin beta chain (Sus scrofa) (UniProt P02554); experiment: Inhibition of porcine MAP-rich beta-tubulin polymerization at 10 ug/mL by light scattering assay
Chain of Tubulin beta chain (Sus scrofa) (P02554 whole entry): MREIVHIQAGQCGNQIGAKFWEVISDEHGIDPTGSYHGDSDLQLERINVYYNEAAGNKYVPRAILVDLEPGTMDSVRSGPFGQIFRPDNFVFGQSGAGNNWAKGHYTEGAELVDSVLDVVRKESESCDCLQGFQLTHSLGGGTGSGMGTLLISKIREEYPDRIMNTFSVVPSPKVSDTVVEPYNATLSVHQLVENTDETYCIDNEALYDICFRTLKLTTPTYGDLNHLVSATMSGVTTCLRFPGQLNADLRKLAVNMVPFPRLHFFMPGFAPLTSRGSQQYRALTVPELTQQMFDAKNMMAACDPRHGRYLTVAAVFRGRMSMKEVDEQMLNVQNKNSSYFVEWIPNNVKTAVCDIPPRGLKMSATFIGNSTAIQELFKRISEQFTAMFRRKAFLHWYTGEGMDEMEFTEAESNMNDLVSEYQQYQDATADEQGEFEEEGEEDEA

[6] = molecular target: Tubulin beta chain (Sus scrofa) (UniProt P02554); experiment: Stimulation of porcine MAP-rich beta-tubulin polymerization at 25 ug/mL by light scattering assay
[7] = molecular target: T1, Cell division protein FtsZ (Staphylococcus aureus) (UniProt P0A031); experiment: Stimulation of Staphylococcus aureus ATCC 33591 FtsZ self-polymerization expressed in Escherichia coli BL21 (DE3) at 40 ug/mL by light scattering assay
T1 sequence (whole entry): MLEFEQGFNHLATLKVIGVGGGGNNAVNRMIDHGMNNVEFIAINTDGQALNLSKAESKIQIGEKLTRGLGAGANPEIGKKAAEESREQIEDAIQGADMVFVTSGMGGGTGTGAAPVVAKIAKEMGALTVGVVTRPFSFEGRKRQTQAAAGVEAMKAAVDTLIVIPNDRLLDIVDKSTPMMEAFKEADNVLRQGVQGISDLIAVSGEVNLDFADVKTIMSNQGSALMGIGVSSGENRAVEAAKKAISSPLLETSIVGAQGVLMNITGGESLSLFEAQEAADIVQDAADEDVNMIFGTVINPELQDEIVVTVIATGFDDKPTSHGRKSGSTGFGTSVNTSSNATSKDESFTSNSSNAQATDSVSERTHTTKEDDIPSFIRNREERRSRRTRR

[8] = molecular target: Tubulin beta chain (Sus scrofa) (UniProt P02554); experiment: Stimulation of porcine MAP-rich beta-tubulin polymerization at 40 ug/mL by light scattering assay

Row | Structure (SMILES) | MIC90 (Staphylococcus aureus [1]) [µg/mL] | MIC90 (Enterococcus faecalis [2]) [µg/mL] | MIC90 (Enterococcus faecalis [3]) [µg/mL] | MIC90 (Staphylococcus aureus [4]) [µg/mL] | inhibition [5] | Activity [6] | Activity [7] | Activity [8]
1 | CC(C)(C)c1ccc(-c2cccc3cc(-c4ccccc4N)ccc23)cc1 | > 64 | > 64 | > 64 | > 64 | – | – | – | –
2 | C[N+](C)(C)c1ccc(-c2ccc3c(-c4ccc(F)cc4)cccc3c2)cc1.[I-] | 4 | 4 | 4 | 4 | – | – | – | –
3 | CC(C)(C)c1ccc(-c2cccc3cc(-c4cccc(N)c4)ccc23)cc1 | > 64 | > 64 | > 64 | > 64 | – | – | – | –
4 | C[N+](C)(C)c1cccc(-c2ccc3c(-c4ccc(C(F)(F)F)cc4)cccc3c2)c1.[I-] | 4 | 8 | 8 | 1 | – | – | – | –
5 | COC(=O)c1ccc(-c2ccc3c(-c4ccc(C(C)(C)C)cc4)cccc3c2)c(C[N+](C)(C)C)c1.[I-] | 2 | 8 | 4 | 1 | – | – | – | –
6 | C[N+](C)(C)c1cccc(-c2ccc3c(-c4ccc(-c5ccccc5)cc4)cccc3c2)c1.[I-] | 1 | 4 | 2 | 0.5 | – | – | – | –
7 | CNCc1cc(C(=O)OC)ccc1-c1ccc2c(-c3ccc(C(C)(C)C)cc3)cccc2c1 | 4 (≈ 9.14 µM) | 4 (≈ 9.14 µM) | 8 (≈ 18.3 µM) | 4 (≈ 9.14 µM) | – | – | – | –
8 | COC(=O)c1ccc(-c2ccc3c(-c4ccc(C(C)(C)C)cc4)cccc3c2)c(CN)c1 | 2 (≈ 4.72 µM) | 16 (≈ 37.8 µM) | 16 (≈ 37.8 µM) | 2 (≈ 4.72 µM) | – | – | – | –
9 | Cc1onc(-c2ccccc2)c1C(=O)N[C@@H]1C(=O)N2[C@@H]1SC(C)(C)[C@@H]2C(=O)O [OXACILLIN] | > 64 | > 64 | 8 (≈ 19.9 µM) | 0.063 (≈ 0.157 µM) | – | – | – | –
10 | COC(=O)Nc1nc2cc(C(=O)c3cccs3)ccc2[nH]1 | – | – | – | – | Active | – | – | –
11 | COc1ccc2c(c[n+](C)c3c4cc5c(cc4ccc23)OCO5)c1OC [CHELERYTHRINE] | 4 | 32 | 32 | 4 | – | – | – | –
12 | Cc1ccccc1-c1ccc2c(-c3ccc(C(C)(C)C)cc3)cccc2c1 | > 64 | > 64 | > 64 | > 64 | – | – | – | –
13 | CN(C)[C@@H]1C(O)=C(C(N)=O)C(=O)[C@@]2(O)C(O)=C3C(=O)c4c(O)cccc4[C@@](C)(O)[C@H]3C[C@@H]12 [TETRACYCLINE] | 64 (≈ 144 µM) | > 64 | 0.5 (≈ 1.13 µM) | 0.063 (≈ 0.142 µM) | – | – | – | –
14 | CC(C)(C)c1ccc(-c2cccc3cc(-c4ccc(C(=O)O)cc4CN)ccc23)cc1 | > 64 | > 64 | > 64 | > 64 | – | – | – | –
15 | CC(=O)O[C@H]1C(=O)[C@@]2(C)[C@H]([C@H](OC(=O)c3ccccc3)[C@]3(O)C[C@H](OC(=O)[C@H](O)[C@@H](NC(=O)c4ccccc4)c4ccccc4)C(C)=C1C3(C)C)[C@]1(OC(C)=O)CO[C@@H]1C[C@@H]2O | – | – | – | – | – | Active | – | –
16 | C[N+](C)(C)c1ccc(-c2ccc3c(-c4ccc(-c5ccccc5)cc4)cccc3c2)cc1.[I-] | 1 | 2 | 2 | 1 | – | – | – | –
17 | NCc1cccc(-c2ccc3c(-c4cccc(-c5ccccc5)c4)cccc3c2)c1 | 4 (≈ 10.4 µM) | 8 (≈ 20.8 µM) | 4 (≈ 10.4 µM) | 2 (≈ 5.19 µM) | – | – | – | –
18 | CC(C)(C)c1ccc(-c2cccc3cc(-c4ccc([N+](C)(C)C)cc4)ccc23)cc1.[I-] | 2 | 4 | 4 | 1 | – | – | – | –

Row | Structure (SMILES) | MIC90 (Staphylococcus aureus [1]) [µg/mL] | MIC90 (Enterococcus faecalis [2]) [µg/mL] | MIC90 (Enterococcus faecalis [3]) [µg/mL] | MIC90 (Staphylococcus aureus [4]) [µg/mL] | inhibition [5] | Activity [6] | Activity [7] | Activity [8]
19 | CN[C@H](CC(C)C)C(=O)N[C@H]1C(=O)N[C@@H](CC(N)=O)C(=O)N[C@H]2C(=O)N[C@H]3C(=O)N[C@H](C(=O)N[C@H](C(=O)O)c4cc(O)cc(O)c4-c4cc3ccc4O)[C@H](O)c3ccc(c(Cl)c3)Oc3cc2cc(c3O[C@@H]2O[C@H](CO)[C@@H](O)[C@H](O)[C@H]2O[C@H]2C[C@](C)(N)[C@H](O)[C@H](C)O2)Oc2ccc(cc2Cl)[C@H]1O [VANCOMYCIN] | 2 (≈ 1.38 µM) | > 64 | 1 (≈ 0.69 µM) | 1 (≈ 0.69 µM) | – | – | inactive | –
20 | C[n+]1cc2c3c(ccc2c2ccc4cc5c(cc4c21)OCO5)OCO3 [SANGUINARIUM] | 2 | 16 | 8 | 2 | – | – | – | –
21 | C[N+](C)(C)c1cccc(-c2ccc3c(-c4ccc(F)cc4)cccc3c2)c1.[I-] | 4 | 8 | 8 | 1 | – | – | – | –
22 | C[N+](C)(C)c1ccc(-c2ccc3c(-c4cccc(-c5ccccc5)c4)cccc3c2)cc1.[I-] | 1 | 2 | 2 | 1 | – | – | – | –
23 | CN(C)Cc1ccccc1-c1ccc2c(-c3ccc(C(C)(C)C)cc3)cccc2c1 | > 64 | > 64 | > 64 | 32 (≈ 81.3 µM) | – | – | – | –
24 | CN(C)Cc1cccc(-c2ccc3c(-c4cccc(-c5ccccc5)c4)cccc3c2)c1 | 8 (≈ 19.3 µM) | 16 (≈ 38.7 µM) | 16 (≈ 38.7 µM) | 4 (≈ 9.67 µM) | – | – | – | –
25 | CNCc1ccccc1-c1ccc2c(-c3ccc(C(C)(C)C)cc3)cccc2c1 | 2 (≈ 5.27 µM) | 2 (≈ 5.27 µM) | 2 (≈ 5.27 µM) | 2 (≈ 5.27 µM) | – | – | – | –
26 | CC[C@H]1OC(=O)[C@H](C)[C@@H](O[C@H]2C[C@@](C)(OC)[C@@H](O)[C@H](C)O2)[C@H](C)[C@@H](O[C@@H]2O[C@H](C)C[C@H](N(C)C)[C@H]2O)[C@](C)(O)C[C@@H](C)C(=O)[C@H](C)[C@@H](O)[C@]1(C)O [ERYTHROMYCIN] | > 64 | > 64 | 1 (≈ 1.36 µM) | 0.13 (≈ 0.177 µM) | – | – | – | –
27 | COC(=O)c1ccc(-c2ccc3c(-c4ccc(C(C)(C)C)cc4)cccc3c2)c(CN(C)C)c1 | > 64 | > 64 | > 64 | > 64 | – | – | – | –
28 | CC(C)(C)c1ccc(-c2cccc3cc(-c4ccccc4CN=C(N)N)ccc23)cc1 | 1 (≈ 2.45 µM) | 2 (≈ 4.91 µM) | 2 (≈ 4.91 µM) | 1 (≈ 2.45 µM) | – | – | – | –
29 | CC(C)(C)c1ccc(-c2cccc3cc(-c4cccc([N+](C)(C)C)c4)ccc23)cc1.[I-] | 1 | 2 | 2 | 0.5 | – | – | – | –
30 | C[N+](C)(C)Cc1cccc(-c2ccc3c(-c4cccc(-c5ccccc5)c4)cccc3c2)c1.[I-] | 1 | 4 | 4 | 0.5 | – | – | – | –
31 | CC(C)(C)c1ccc(-c2cccc3cc(-c4ccccc4C[N+](C)(C)C)ccc23)cc1.[I-] | 0.5 | 4 | 4 | 0.5 | – | – | Active | inactive
32 | C[N+](C)(C)c1cccc(-c2ccc3c(-c4cccc(-c5ccccc5)c4)cccc3c2)c1.[I-] | 1 | 2 | 2 | 1 | – | – | – | –
33 | CC(C)(C)c1ccc(-c2cccc3cc(-c4ccccc4CCN)ccc23)cc1 | 2 (≈ 5.27 µM) | 4 (≈ 10.5 µM) | 4 (≈ 10.5 µM) | 2 (≈ 5.27 µM) | – | – | Active | –
34 | CCC[C@@H]1C[C@@H](C(=O)N[C@@H]([C@H]2O[C@H](SC)[C@H](O)[C@@H](O)[C@H]2O)[C@H](C)Cl)N(C)C1 [CLINDAMYCIN] | > 64 | > 64 | 2 (≈ 4.71 µM) | 0.031 (≈ 0.0729 µM) | – | – | – | –
35 | COC(=O)c1ccc(-c2ccc3c(-c4ccc(C(C)(C)C)cc4)cccc3c2)c(CN=C(N)N)c1 | 1 (≈ 2.15 µM) | 4 (≈ 8.59 µM) | 2 (≈ 4.3 µM) | 1 (≈ 2.15 µM) | – | – | – | –
